Active and inactive are the calls of the source.
Legend:
Mus musculus [1] = assay: Anticonvulsant activity in albino CF1 mouse assessed as metrazol dose causing first clonus at 180 mg/kg, ip administered 0.5 hrs prior to MTZ challenge (reference value: 28.4 +/- 1.1 mg/kg); type: functional
Mus musculus [2] = assay: Anticonvulsant activity in albino CF1 mouse assessed as metrazol dose causing first clonus at 56 mg/kg, ip administered 0.5 hrs prior to MTZ challenge (reference value: 28.4 +/- 1.1 mg/kg); type: functional
Mus musculus [3] = assay: Anticonvulsant activity in albino CF1 mouse model of metrazol-induced seizures assessed as metrazol dose causing first twitch at 180 mg/kg, ip administered 0.5 hrs prior to MTZ challenge (reference value: 25.6 +/- 0.9 mg/kg); type: functional
Mus musculus [4] = assay: Anticonvulsant activity in albino CF1 mouse model of metrazol-induced seizures assessed as metrazol dose causing first twitch at 56 mg/kg, ip administered 0.5 hrs prior to MTZ challenge (reference value: 25.6 +/- 0.9 mg/kg); type: functional
Mus musculus [5] = assay: Anticonvulsant activity in albino CF1 mouse assessed as time to clonus at 180 mg/kg, ip administered 0.5 hrs prior to MTZ challenge (reference value: 29.3 +/- 1.2 s); type: functional
Mus musculus [6] = assay: Anticonvulsant activity in albino CF1 mouse assessed as time to clonus at 56 mg/kg, ip administered 0.5 hrs prior to MTZ challenge (reference value: 29.3 +/- 1.2 s); type: functional
Mus musculus [7] = assay: Anticonvulsant activity in albino CF1 mouse model of metrazol-induced seizures assessed as time to twitch at 180 mg/kg, ip administered 0.5 hrs prior to MTZ challenge (reference value: 26.5 +/- 1.0 s); type: functional
Mus musculus [8] = assay: Anticonvulsant activity in albino CF1 mouse model of metrazol-induced seizures assessed as time to twitch at 56 mg/kg, ip administered 0.5 hrs prior to MTZ challenge (reference value: 26.5 +/- 1.0 s); type: functional
[9] = Toxicity in albino CF1 mouse assessed as body weight at 56 mg/kg, ip measured at 0.5 hrs (reference value: 29.3 +/- 0.3 g); type: organism-based; settings: in vivo
[10] = Toxicity in albino CF1 mouse assessed as body weight at 180 mg/kg, ip measured at 0.5 hrs (reference value: 29.3 +/- 0.3 g); type: organism-based; settings: in vivo
Mus musculus [11] = assay: Anticonvulsant activity in ip dosed 60-Hz corneal stimulation-induced full kindling albino CF1 mouse model of epilepsy assessed as reduction in seizure score treated 0.25 hrs prior to 60-Hz corneal stimulation; type: functional
Mus musculus [12] = assay: Anticonvulsant activity in 60-Hz corneal stimulation-induced full kindling albino CF1 mouse model of epilepsy assessed as reduction in seizure score at 15 mg/kg, ip administered 0.25 hrs prior to 60-Hz corneal stimulation; type: functional, organism-based
Mus musculus [13] = assay: Anticonvulsant activity in 60-Hz corneal stimulation-induced full kindling albino CF1 mouse model of epilepsy assessed as reduction in seizure score at 25 mg/kg, ip administered 0.25 hrs prior to 60-Hz corneal stimulation; type: functional, organism-based
Mus musculus [14] = assay: Anticonvulsant activity in 60-Hz corneal stimulation-induced full kindling albino CF1 mouse model of epilepsy assessed as reduction in seizure score at 42 mg/kg, ip administered 0.25 hrs prior to 60-Hz corneal stimulation; type: functional, organism-based
Mus musculus [15] = assay: Anticonvulsant activity in 60-Hz corneal stimulation-induced full kindling albino CF1 mouse model of epilepsy assessed as reduction in seizure score at 70 mg/kg, ip administered 0.25 hrs prior to 60-Hz corneal stimulation; type: functional, organism-based
Mus musculus [16] = assay: Anticonvulsant activity in albino CF1 mouse model of metrazol-induced seizures assessed as metrazol dose causing first twitch at 43 mg/kg, ip administered 0.25 hrs prior to MTZ challenge (reference value: 27.9 +/- 1.2 mg/kg); type: functional
Mus musculus [17] = assay: Anticonvulsant activity in albino CF1 mouse model of metrazol-induced seizures assessed as time to twitch at 43 mg/kg, ip administered 0.25 hrs prior to MTZ challenge (reference value: 26.1 +/- 1.2 s); type: functional
Mus musculus [18] = assay: Anticonvulsant activity in albino CF1 mouse model of metrazol-induced seizures assessed as time to twitch at 150 mg/kg, ip administered 0.25 hrs prior to MTZ challenge (reference value: 26.1 +/- 1.2 s); type: functional
Mus musculus [19] = assay: Analgesic activity in formalin-induced albino CF1 mouse model of hyperalgesia assessed as time spent in paw licking during inflammatory phase at 43 mg/kg, ip administered 0.25 hrs prior to formalin challenge measured first 2 mins of five minutes test for 10 to 40 mins by formalin test relative to control; type: functional
Mus musculus [20] = assay: Analgesic activity in formalin-induced albino CF1 mouse model of hyperalgesia assessed as time spent in paw licking during acute phase at 43 mg/kg, ip administered 0.25 hrs prior to formalin challenge measured first 2 mins of five minutes test for 10 mins by formalin test relative to control; type: functional
Mus musculus [21] = assay: Neuroprotective activity against controlled cortical impact-induced C57Bl/6 acute mouse model of traumatic brain injury assessed as lesion volume at 43 mg/kg, ip administered twice daily for 3 days starting from 0.5 hrs post controlled cortical impact challenge measured post-last dose by naurotrace 435/455 staining-based fluorescent microscopy (reference value: 11.9 +/- 0.7 mm3); type: functional
Brain [22] = assay: (§1) In vitro anticonvulsant activity in kainic acid-induced albino Sprague Dawley rat brain assessed as blockade of ACSF-stimulated spontaneous electrographic seizure-like activity in medial entorhinal cortex hippocampal brain slices by measuring burst duration at 100 uM measured after 20 mins relative to control; type: functional
Mus musculus [23] = assay: Anticonvulsant activity in albino CF1 mouse assessed as metrazol dose causing first clonus at 150 mg/kg, ip administered 0.25 hrs prior to MTZ challenge (reference value: 31.1 +/- 1.4 mg/kg); type: functional
Mus musculus [24] = assay: Anticonvulsant activity in albino CF1 mouse assessed as metrazol dose causing first clonus at 43 mg/kg, ip administered 0.25 hrs prior to MTZ challenge (reference value: 31.1 +/- 1.4 mg/kg); type: functional
Mus musculus [25] = assay: Anticonvulsant activity in albino CF1 mouse model of metrazol-induced seizures assessed as metrazol dose causing first twitch at 150 mg/kg, ip administered 0.25 hrs prior to MTZ challenge (reference value: 27.9 +/- 1.2 mg/kg); type: functional
Mus musculus [26] = assay: Anticonvulsant activity in albino CF1 mouse assessed as time to clonus at 150 mg/kg, ip administered 0.25 hrs prior to MTZ challenge (reference value: 29 +/- 1.5 s); type: functional
Mus musculus [27] = assay: Anticonvulsant activity in albino CF1 mouse assessed as time to clonus at 43 mg/kg, ip administered 0.25 hrs prior to MTZ challenge (reference value: 29 +/- 1.5 s); type: functional
[28] = Toxicity in albino CF1 mouse assessed as body weight at 43 mg/kg, ip measured at 0.25 hrs (reference value: 26.4 +/- 0.4 g); type: organism-based; settings: in vivo
[29] = Toxicity in albino CF1 mouse assessed as body weight at 150 mg/kg, ip measured at 0.25 hrs (reference value: 26.4 +/- 0.4 g); type: organism-based; settings: in vivo
Mus musculus [30] = assay: Anticonvulsant activity in 60-Hz corneal stimulation-induced full kindling albino CF1 mouse model of epilepsy assessed as reduction in seizure score at 20 mg/kg, ip administered 0.25 hrs prior to 60-Hz corneal stimulation; type: functional, organism-based
Mus musculus [31] = assay: Anticonvulsant activity in 60-Hz corneal stimulation-induced full kindling albino CF1 mouse model of epilepsy assessed as reduction in seizure score at 60 mg/kg, ip administered 0.25 hrs prior to 60-Hz corneal stimulation; type: functional, organism-based
Mus musculus [32] = assay: Anticonvulsant activity in 60-Hz corneal stimulation-induced full kindling albino CF1 mouse model of epilepsy assessed as reduction in seizure score at 86 mg/kg, ip administered 0.25 hrs prior to 60-Hz corneal stimulation; type: functional, organism-based
Brain [33] = assay: as §1, with “rate” for “duration”; type: functional
Rattus norvegicus [34] = assay: Antiallodynic activity in albino Sprague-Dawley rat model of sciatic nerve ligation-induced neuropathic pain assessed as increase in paw withdrawal threshold at 50 mg/kg, po measured after 1 hr by Von Frey test relative to control; type: functional
Rattus norvegicus [35] = assay: Antiallodynic activity in albino Sprague-Dawley rat model of sciatic nerve ligation-induced neuropathic pain assessed as increase in paw withdrawal threshold at 50 mg/kg, po measured after 2 hrs by Von Frey test relative to control; type: functional
Rattus norvegicus [36] = assay: Antiallodynic activity in albino Sprague-Dawley rat model of sciatic nerve ligation-induced neuropathic pain assessed as increase in paw withdrawal threshold at 50 mg/kg, po measured after 4 hrs by Von Frey test relative to control; type: functional
Rattus norvegicus [37] = assay: Antiallodynic activity in albino Sprague-Dawley rat model of sciatic nerve ligation-induced neuropathic pain assessed as increase in paw withdrawal threshold at 50 mg/kg, po measured after 6 hrs by Von Frey test relative to control; type: functional
Rattus norvegicus [38] = assay: Antiallodynic activity in albino Sprague-Dawley rat model of sciatic nerve ligation-induced neuropathic pain assessed as time required to show maximum increase in paw withdrawal threshold at 50 mg/kg, po Von Frey test; type: functional

Molecule `CC(O)CNC(=O)/C=C/c1ccc(Cl)cc1` (racemic) has an Activity (Mus musculus [1]) of 105.4 mg/kg, an Activity (Mus musculus [2]) of 65.4 mg/kg and an Activity (Mus musculus [3]) of 60.3 mg/kg. For the same molecule, the Activity (Mus musculus [4]) was 45 mg/kg, the Time (Mus musculus [5]) was 106.1 s and the Time (Mus musculus [6]) was 65.6 s. For the same molecule, the Time (Mus musculus [7]) was 60.8 s, the Time (Mus musculus [8]) was 45.1 s and the Activity [9] was 28.4 g. For the same molecule, the Activity [10] was 28.6 g, the ED50 (Mus musculus [11]) was 51.1 mg/kg and the Activity (Mus musculus [12]) was “inactive”. The Activity (Mus musculus [13]) was “inactive”, the Activity (Mus musculus [14]) was “inactive” and the Activity (Mus musculus [15]) was “Active”.
Work on `Cc1ccccc1/C=C/C(=O)N[C@@H](C)CO` yielded an Activity (Mus musculus [16]) of 53.4 mg/kg, a Time (Mus musculus [17]) of 48.2 s and a Time (Mus musculus [18]) of 87.3 s. For the same molecule, the Activity (Mus musculus [19]) was 84.29%, the Activity (Mus musculus [20]) was 34.23% and the Activity (Mus musculus [21]) was 11.09 mm3. The Activity (Brain [22]) was 82%, the Activity (Mus musculus [23]) was 96.3 mg/kg and the Activity (Mus musculus [24]) was 74.6 mg/kg. For the same molecule, the Activity (Mus musculus [25]) was 93.5 mg/kg, the Time (Mus musculus [26]) was 90 s and the Time (Mus musculus [27]) was 67.2 s. The Activity [28] was 25.6 g, the Activity [29] was 26.5 g and the ED50 (Mus musculus [11]) was 36.8 mg/kg. For the same molecule, the Activity (Mus musculus [30]) was “inactive”, the Activity (Mus musculus [31]) was “Active” and the Activity (Mus musculus [32]) was “Active”. For the same molecule, the Activity (Brain [33]) was 106%, the Activity (Rattus norvegicus [34]) was 233% and the Activity (Rattus norvegicus [35]) was 254%. For the same molecule, the Activity (Rattus norvegicus [36]) was 249%, the Activity (Rattus norvegicus [37]) was 237% and the Time (Rattus norvegicus [38]) was 2 h.
